Like-named read-outs stand apart in the source and are kept apart here.
Legend:
HCT116 = test: MTT assay, antiproliferative effect on HCT116; format: cell-based; conditions: Homo sapiens
Protocol: (§1) Human CRC (HCT116 and HT-29) and PCa (DU145 and PC3) cell lines were purchased from the American Type Culture Collection (ATCC—LGC Standards, Molsheim, France). All cells were grown in RPMI 1640 medium supplemented with 10% FBS, 1% L-glutamine, 100 U/mL penicillin, and 100 μg/mL streptomycin. Cultures were maintained in a humidified atmosphere containing 5% CO2 at 37 °C. Cells were seeded in 75 cm^2 culture flasks at 1.2 × 10^4 cells/cm^2 for HCT116, DU145, and PC3 cells, and 2.0 × 10^4 for HT-29 cells. Cells were grown for 24 h in culture medium prior to exposure or not to obtain the synthesized compounds. Stock solutions (10^−2 M in DMSO) of each compound were diluted in culture medium to obtain appropriate final concentrations.
(§2) • (a) MTT assay: The antiproliferative effect of all compounds was determined using MTT assay (a metabolic activity test). Briefly, cells were seeded in 96-well culture plates at 4 × 10^3 cells/well for HCT116, PC3, and DU145 cells and 6 × 10^3 cells/well for HT-29 cells (100 µL/well), and grown for 24 h in culture medium prior to exposure or not to obtain compounds 1–15 with concentrations ranging from 5 nM to 50 μM. After 24 and 48 h of treatment, MTT (5 mg/mL in PBS) was added and incubated for another 3 h. MTT was then removed from the wells before adding 100 μL/well of DMSO. The optical density was detected with a microplate reader (Multiskan FC, Thermoscientific, Bordeaux, France) at 550 nm and cell viability was expressed as a percentage of each treatment condition compared to control cells. IC50 values were calculated for all compounds from the dose–response curve. Data are expressed as the arithmetic means ± standard error of the mean (SEM) of separate experiments. All experiments were performed at least in triplicate. • (b) Trypan blue dye exclusion method: Cells were grown for 24 h then treated with compounds 10 and 13 at indicated concentrations. After 48 h of treatment, cells were trypsinized and resuspended in complete medium. Each sample was mixed with Trypan blue solution (0.14% in HBSS, Invitrogen-GIBCO, ThermoFisher, Illkirch, France). Colored (non-viable) and dye-excluding (viable) cells were counted with the LUNA-II automated cell Counter (Logos Biosystems; MC2, Aubière, France). The control was normalized to 100% including viable and dead cells. The results indicated on the histograms were expressed as the percentage of cells compared to the control. IC50 values were determined from the percentages of viable cells compared to the control.

HT-29 = test: MTT assay, antiproliferative effect on HT-29; format: cell-based, human
Protocol: as §1, §2

DU145 = test: MTT assay, antiproliferative effect on DU145; format: cell-based; conditions: Homo sapiens
Protocol: as §1, §2

PC3 = test: MTT assay, antiproliferative effect on PC3; format: cell-based; conditions: Homo sapiens
Protocol: as §1, §2

[1] = tested on: cellular microtubules in HeLa cells; test: Quantitative assay of the cellular microtubule content (immunoluminescence); format: cell-based; conditions: Homo sapiens, 0.5 h, 30 min incubation
Protocol: The assay was realized as described by Laisne et al.. Briefly, 7500 HeLa cells were seeded in 96-well microplates (#655086, Greiner bioOne, Courtaboeuf, France) in 100 µL of complete medium per well and then incubated at 37 °C in 5% CO2 for 24 h. Cells were then treated for 30 min at 37 °C with the compounds at concentrations ranging from 0.1 to 1000 µM (1 microplate per molecule, 1 concentration per column), with 0.1% DMSO used as […] (6 wells per microplate). After medium aspiration, treated cells were permeabilized for 10 min using 100 µL per well of warmed (37 °C) OPT buffer (80 mM Pipes, 1 mM EGTA, 1 mM MgCl2, 0.5% Triton X-100, and 10% glycerol, pH 6.8). Cells were fixed overnight at room temperature using 100 µL per well of 4% formaldehyde (Sigma Aldrich, #252549, Saint-Quentin-Fallavier, France) in PBS. Cells were washed 3 times in PBS, 0.1% Tween-20 (100 µL per well), then primary anti-alpha-tubulin antibody (clone α3A1), 1:5000 in PBS 2% Bovine Serum Albumin (BSA), was added for 45 min. Cells were washed twice again and secondary anti-mouse antibody coupled to HRP (1:2000 in PBS 2% BSA, #715-035-150, Jackson Immuno-Research Laboratories, Cambridgeshire, UK) was added for 45 min. Then, cells were washed again with PBS and 100 µL of ECL substrate (#170-5061, Bio-Rad Laboratories Inc., Hercules, CA, USA) was injected in each well using the FLUOstar OPTIMA Microplate Reader (BMG Lab technology, Champagny-sur-Marne, France). The luminescent signal was read immediately after ECL injection. IC50 values were calculated using GraphPad Prism software (10.3.1 version) and are presented in the text as means ± SEM of three independent experiments.

HeLa cells microtubules = test: Tubulin immunofluorescence; format: cell-based; conditions: 30 min, chalcone 8 at 1 µM or chalcone 2 at 200 µM
Protocol: Cells at a density of 20,000 cells per well were grown for 48 h on glass coverslips placed in a 24-well microplate. When cells reached 70% confluence, the medium was replaced with a fresh one supplemented with DMSO (0.005% or 0.01%) or the test compound at 1 or 200 µM. After 30 min of incubation, cells were permeabilized in warm OPT buffer (80 mmol/L Pipes, […], 0.5% Triton X-100 and 10% Glycerol, pH 6.8) and fixed for 6 min in −20 °C methanol (Carlo ERBA SAS, #414855, Val-de-Reuil, France). After washing and saturation with a specific blocking buffer (3% BSA), 10% Goat serum (Gibco Invitrogen, #16210064, Carlsbad, CA, USA) in PBS, cells were incubated for 45 min at room temperature (RT) with anti-alpha-tubulin antibody (clone α3A1 in blocking buffer). Cells were washed twice again and subsequently incubated with Alexa 488 conjugated anti-mouse antibody (1:500 in blocking buffer, #115-545-166, Jackson immune-research laboratory, Cambridgeshire, UK) and DNA was stained with Dapi which was included in mounting media (Dapi fluoromount, #0100-20, Clinisciences, France). Images were captured with a Zeiss AxioimagerM2 microscope (Zeiss microscopy, Rueil Malmaison, France) equipped with the acquisition software AxioVision (4.8 version, Marly-le-Roi, France).

[2] = tested on: human PCa (DU145 and PC3) cell lines; test: MTT assay, summary statements for PCa cells; format: cell-based
Protocol: as §1, §2

[3] = HCT-116, 24 h, read-out: IC50 HCT116 24 h
[4] = HCT-116, 48 h, read-out: IC50 HCT116 48 h
[5] = 48 h, read-out: IC50 HT-29 48 h
[6] = Homo sapiens, HT-29, 24 h, 24 h, read-out: IC50 HT-29 24 h
[7] = Homo sapiens, HT-29, 48 h, 48 h, read-out: IC50 HT-29 48 h
[8] = DU-145, 24 h, read-out: IC50 DU145 24 h
[9] = DU-145, 48 h, read-out: IC50 DU145 48 h
[10] = PC-3, 24 h, read-out: IC50 PC3 24 h
[11] = PC-3, 48 h, read-out: IC50 PC3 48 h
[12] = read-out: IC50 depolymerization of cellular microtubules

IC50 (HCT116; [3]) [µM] | IC50 (HCT116; [4]) [µM] | IC50 (HT-29; [5]) [µM] | IC50 (HT-29; [6]) [µM] | IC50 (HT-29; [7]) [µM] | IC50 (DU145; [8]) [µM] | IC50 (DU145; [9]) [µM] | IC50 (PC3; [10]) [µM] | IC50 (PC3; [11]) [µM] | IC50 ([1]; no unit in the picture, read-out: IC50 microtubule contents (printed in Figure 8)) [µM] | IC50 [1, 12] [µM] | IC50 ([2]; Homo sapiens, DU-145, DU145 and PC3, text summary, read-out: IC50 against PCa cells) [µM] | IC50 ([2]; DU145 and PC3, read-out: IC50 towards PCa cells) [µM] | IC50 ([2]; Homo sapiens, DU-145, DU145 and PC3, text summary, read-out: IC50 towards PCa cells) [µM] | SMILES | state of tubulin / microtubules by immunofluorescence (HeLa cells microtubules)
4.23 ± 0.11 | 2.66 ± 0.1 | 7.34 ± 0.22 | 9.87 ± 0.44 | 7.3 | 3.47 ± 0.24 | 2.97 ± 0.15 | 3.76 ± 0.28 | 3.44 ± 0.11 | 106 ± 4.69 | 106 ± 4.7 | ~3 | – | – | COc1cc(C(=O)/C=C/c2cccc(O)c2)cc(OC)c1OC [chalcone 2, (E)-3-(3-hydroxyphenyl)-1-(3,4,5-trimethoxyphenyl)prop-2-en-1-one] | tubulin is mainly in its depolymerized form
0.22 ± 0.01 | 0.11 ± 0.02 | 8.11 ± 0.5 | 8.03 ± 0.18 | 8.1 | 0.036 ± 0.002 | 0.031 ± 0.001 | 0.021 ± 0.001 | 0.02 ± 0.001 | – | 0.289 ± 0.045 | – | ~0.02 | 0.017 to 0.031 | COc1ccc(/C=C/C(=O)c2cc(OC)c(OC)c(OC)c2)cc1O [chalcone 8, (E)-3-(3-hydroxy-4-methoxyphenyl)-1-(3,4,5-trimethoxyphenyl)prop-2-en-1-one] | tubulin is mainly in its depolymerized form
